Laboratory results taken from the NIST ThermoML archive (doi:10.1016/j.jct.2011.10.027).
Numbers after ± are expanded uncertainties.

Assay: xn = mol fraction of the nth substance listed
Conditions: 101 kPa, Liquid, Vibrating tube method

CCCCN(CCCC)CCCC [tributylamine] + Cc1ccccc1C
mass density [kg/m3]
Conditions	293.15 K	298.15 K	303.15 K	313.15 K	323.15 K	333.15 K
x1 = 0.0762	865.26 ± 0.24	861.1 ± 0.24	856.94 ± 0.24	848.59 ± 0.24	840.19 ± 0.24	831.72 ± 0.24
x1 = 0.1611	851.26 ± 0.24	847.17 ± 0.24	843.07 ± 0.24	834.83 ± 0.24	826.55 ± 0.24	818.19 ± 0.24
x1 = 0.2324	840.99 ± 0.24	836.94 ± 0.24	832.88 ± 0.24	824.73 ± 0.24	816.54 ± 0.24	808.28 ± 0.24
x1 = 0.3142	830.6 ± 0.24	826.6 ± 0.24	822.59 ± 0.24	814.54 ± 0.24	806.44 ± 0.24	798.29 ± 0.24
x1 = 0.3986	821.15 ± 0.24	817.19 ± 0.24	813.22 ± 0.24	805.26 ± 0.24	797.25 ± 0.24	789.19 ± 0.24
x1 = 0.481	812.95 ± 0.24	809.03 ± 0.24	805.1 ± 0.24	797.21 ± 0.24	789.28 ± 0.24	781.29 ± 0.24
x1 = 0.5686	805.17 ± 0.24	801.29 ± 0.24	797.4 ± 0.24	789.61 ± 0.24	781.76 ± 0.24	773.87 ± 0.24
x1 = 0.6368	799.67 ± 0.24	795.83 ± 0.24	791.97 ± 0.24	784.23 ± 0.24	776.45 ± 0.24	768.61 ± 0.24
x1 = 0.7145	793.98 ± 0.24	790.16 ± 0.24	786.34 ± 0.24	778.66 ± 0.24	770.94 ± 0.24	763.17 ± 0.24
x1 = 0.769	790.27 ± 0.24	786.47 ± 0.24	782.67 ± 0.24	775.03 ± 0.24	767.36 ± 0.24	759.64 ± 0.24
x1 = 0.8741	783.74 ± 0.24	779.98 ± 0.24	776.21 ± 0.24	768.65 ± 0.24	761.06 ± 0.24	753.41 ± 0.24
x1 = 0.9545	779.3 ± 0.24	775.56 ± 0.24	771.81 ± 0.24	764.3 ± 0.24	756.75 ± 0.24	749.14 ± 0.24

CCCCN(CCCC)CCCC [tributylamine] + O=[N+]([O-])c1ccccc1
mass density [kg/m3]
Conditions	293.15 K	298.15 K	303.15 K	313.15 K	323.15 K	333.15 K
x1 = 0.0806	1132.44 ± 0.37	1127.65 ± 0.36	1122.87 ± 0.36	1113.29 ± 0.35	1103.7 ± 0.34	1094.1 ± 0.34
x1 = 0.1692	1068.2 ± 0.32	1063.58 ± 0.31	1058.97 ± 0.31	1049.72 ± 0.3	1040.46 ± 0.29	1031.17 ± 0.29
x1 = 0.2426	1023.24 ± 0.27	1018.75 ± 0.27	1014.26 ± 0.27	1005.27 ± 0.26	996.24 ± 0.26	987.2 ± 0.26
x1 = 0.3259	979.47 ± 0.25	975.11 ± 0.25	970.74 ± 0.25	961.98 ± 0.25	953.2 ± 0.25	944.4 ± 0.25
x1 = 0.3993	945.96 ± 0.25	941.69 ± 0.25	937.43 ± 0.25	928.86 ± 0.25	920.27 ± 0.25	911.63 ± 0.25
x1 = 0.4829	912.69 ± 0.25	908.52 ± 0.24	904.33 ± 0.24	895.96 ± 0.24	887.56 ± 0.25	879.12 ± 0.25
x1 = 0.5607	885.41 ± 0.24	881.32 ± 0.24	877.22 ± 0.24	869.01 ± 0.24	860.76 ± 0.24	852.46 ± 0.24
x1 = 0.6392	861.09 ± 0.24	857.07 ± 0.24	853.04 ± 0.24	844.97 ± 0.24	836.86 ± 0.24	828.72 ± 0.24
x1 = 0.7176	839.19 ± 0.24	835.25 ± 0.24	831.29 ± 0.24	823.36 ± 0.24	815.4 ± 0.24	807.4 ± 0.24
x1 = 0.7976	819.27 ± 0.24	815.39 ± 0.24	811.5 ± 0.24	803.7 ± 0.24	795.86 ± 0.24	787.99 ± 0.24
x1 = 0.8779	801.19 ± 0.24	797.38 ± 0.24	793.55 ± 0.24	785.88 ± 0.24	778.17 ± 0.24	770.42 ± 0.24
x1 = 0.9546	785.56 ± 0.24	781.8 ± 0.24	778.03 ± 0.24	770.48 ± 0.24	762.89 ± 0.24	755.25 ± 0.24
